# Laboratory results: paper PMC10965793, “Synthesis and biological evaluation of pyridylpiperazine hybrid derivatives as urease inhibitors” (Frontiers in Chemistry, 2024)
# Entries after “also recorded” stand apart in the source; their conditions may differ. Like-named read-outs stand apart in the source and are kept apart here.
# What was measured:
# [1] = target: jack bean urease (Canavalia ensiformis, UniProt P07374); experiment: biochemical
# Method: The inhibitory activity of 1-(3-nitropyridin-2-yl)piperazine derivatives (5a-o; 7a-k) was assessed in vitro against urease with minor modifications using the indophenol method ([Al Azzam et al., 2022]; [Da Costa et al., 2022]). At first, 1 mM solution of a test compound was prepared in 10% DMSO followed by the preparation of the reaction mixture. The reaction mixture was prepared by adding 30 μL of reaction buffer (100 mmol/L of urea, 1 mmol/L of EDTA, 10 mmol/L of LiCl2, 10 mmol/L of KH2PO4; pH: 8.2), 50 μL of R1 (120 mmol/L phosphate buffer, 60 mmol/L sodium salicylate, 5 mmol/L sodium nitroprusside, 1 mmol/L EDTA and 5 KU/L urease), 10 μL of substrate (1 mM urea), and 10 μL of test compound in triplicate in a 96-well plate. After 5 min of incubation at ambient temperature, 70 μL of R2 (120 mmol/L phosphate buffer, 400 mmol/L sodium hydroxide, and 10 mmol/L sodium hypochlorite) was added to the reaction mixture ([Rauf et al., 2013]). After another incubation period of 10 min at room temperature, the absorbance was measured using a microplate reader (Bio-Tek, United States) at a particular wavelength of 630 nm. […] The following equation was used to determine the percentage of inhibition for each test compound. Percentage inhibition=100–Absorbance of test compound/ Absorbance of negative control×100
# The IC50 values of test compounds (5a-o; 7a-k) at various concentrations were determined by analyzing the data, obtained from in vitro urease inhibitory assay, by GraphPad Prism version 8.0.2 (GraphPad, California, United States).
# [2] = tested on: urease; conditions: 2022, cited from earlier work
# [3] = tested on: human blood cells; experiment: In vitro hemocompatibility screening (hemolysis); format: cell-based; conditions: hemolysis percentage at 0.5 mg/mL and 1 mg/mL nearer to that of PBS
# Method: 1-(3-nitropyridin-2-yl)piperazine 3 and its derivatives (5b, 5c, 5i; 7e, 7h) were analyzed for hemolysis activity due to their remarkable urease inhibition potential. […] Experimental data on hemolysis percentage have been depicted in Figure 5.
# Hemolysis is the rupturing of the cell membrane of red blood cells that causes the expulsion of hemoglobin into the blood plasma. To analyze the effects of 1-(3-nitropyridin-2-yl)piperazine 3 and its derivatives (5b, 5c, 5i; 7e, 7h) on human blood, a hemolysis analysis was carried out (Supplementary Figure S69). About 5 mL fresh sample of human blood was collected from a volunteer and transferred to a vacutainer tube containing EDTA to prevent coagulation. The ultracentrifugation of the blood sample was carried out at 3,000 rpm for 20 min and the separated plasma was discarded. The blood cells were washed about three times by using a double volume of phosphate buffer solution (PBS) (pH = 7.4). […] To quantify hemoglobin in test samples, the absorbance of the supernatant was measured at 540 nm ([Munawwar et al., 2023]). From the absorbance value, the hemolysis percentage was determined by the following formula: Hemolysis %=Absorbance of test sample−Absorbance of negative control/[…]
# jack bean urease, sequence (P07374 whole entry, looked up): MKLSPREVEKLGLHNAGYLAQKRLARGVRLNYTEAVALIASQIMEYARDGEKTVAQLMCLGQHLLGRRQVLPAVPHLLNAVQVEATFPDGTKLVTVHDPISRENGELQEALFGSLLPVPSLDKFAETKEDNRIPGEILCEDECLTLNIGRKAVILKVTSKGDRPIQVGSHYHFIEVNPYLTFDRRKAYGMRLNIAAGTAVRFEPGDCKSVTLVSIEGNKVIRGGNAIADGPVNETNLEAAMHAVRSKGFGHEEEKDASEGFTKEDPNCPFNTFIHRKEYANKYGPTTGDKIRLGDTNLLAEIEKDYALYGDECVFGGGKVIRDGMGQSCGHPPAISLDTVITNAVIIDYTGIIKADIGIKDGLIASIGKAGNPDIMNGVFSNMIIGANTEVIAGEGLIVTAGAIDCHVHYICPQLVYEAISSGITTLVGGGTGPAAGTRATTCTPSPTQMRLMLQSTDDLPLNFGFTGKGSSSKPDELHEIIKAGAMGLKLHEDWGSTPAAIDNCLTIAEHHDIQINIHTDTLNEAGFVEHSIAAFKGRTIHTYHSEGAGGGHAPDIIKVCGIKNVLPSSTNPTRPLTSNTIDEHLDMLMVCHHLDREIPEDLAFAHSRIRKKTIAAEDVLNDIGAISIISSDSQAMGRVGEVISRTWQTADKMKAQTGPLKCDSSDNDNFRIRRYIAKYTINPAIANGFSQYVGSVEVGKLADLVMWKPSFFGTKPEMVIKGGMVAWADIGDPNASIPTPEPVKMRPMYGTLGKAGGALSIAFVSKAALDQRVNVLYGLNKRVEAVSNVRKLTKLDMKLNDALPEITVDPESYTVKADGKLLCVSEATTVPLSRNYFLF
structure (smiles),measurement,setting,value
"O=C(CN1CCN(c2ncccc2[N+](=O)[O-])CC1)Nc1cccc([N+](=O)[O-])c1 [5i, N-(3-Nitrophenyl)-2-(4-(3-nitropyridin-2-yl)piperazin-1-yl)acetamide]",IC50,[1],2.56 ± 0.55 µM
same,melting point,,139 to 141 °C
"O=C(CN1CCN(c2ncccc2[N+](=O)[O-])CC1)Nc1ccc(Br)cc1 [5g, N-(4-Bromophenyl)-2-(4-(3-nitropyridin-2-yl)piperazin-1-yl)acetamide]",IC50,[1],8.43 ± 0.41 µM
same,melting point,,115 to 116 °C
"O=C(CN1CCN(c2ncccc2[N+](=O)[O-])CC1)Nc1ccc([N+](=O)[O-])cc1 [5j, N-(4-Nitrophenyl)-2-(4-(3-nitropyridin-2-yl)piperazin-1-yl)acetamide]",IC50,[1],4.19 ± 0.41 µM
same,melting point,,145 to 146 °C
COc1ccccc1N1CCN(c2ccc(/C=N/NC(N)=O)cc2)CC1 [Piperazine based semicarbazone],IC50,"[2]; in Figure 3, ref Moghadam et al.",3.95 µM
"O=[N+]([O-])c1cccnc1N1CCNCC1 [compound 3, 1-(3-Nitropyridin-2-yl)piperazine]",IC50,[1],3.9 ± 1.91 µM
"Cc1ccccc1NC(=O)CN1CCN(c2ncccc2[N+](=O)[O-])CC1 [5k, 2-(4-(3-Nitropyridin-2-yl)piperazin-1-yl)-N-(ortho-tolyl)acetamide]",IC50,[1],14.1 ± 0.67 µM
same,melting point,,105 to 106 °C
"O=C(CN1CCN(c2ncccc2[N+](=O)[O-])CC1)Nc1ccc(Cl)cc1 [5d, N-(4-Chlorophenyl)-2-(4-(3-nitropyridin-2-yl)piperazin-1-yl)acetamide]",IC50,[1],8.25 ± 0.41 µM
same,melting point,,99 to 100 °C
"COc1ccc(NC(=O)CN2CCN(c3ncccc3[N+](=O)[O-])CC2)cc1 [5o, N-(4-Methoxyphenyl)-2-(4-(3-nitropyridin-2-yl)piperazin-1-yl)acetamide]",IC50,[1],5.21 ± 0.47 µM
same,melting point,,107 to 108 °C
"Cc1ccccc1NC(=O)C(C)N1CCN(c2ncccc2[N+](=O)[O-])CC1 (stereo not shown) [7h, N-(ortho-Tolyl)-2-(4-(3-nitropyridin-2-yl)piperazin-1-yl)propanamide]",IC50,[1],3.01 ± 0.45 µM
same,biocompatibility in human blood cells (hemolysis percentage),[3],more biocompatible; also recorded: good biocompatibility
same,melting point,,90 to 92 °C
"O=C(CN1CCN(c2ncccc2[N+](=O)[O-])CC1)Nc1ccccc1Br [5e, N-(2-Bromophenyl)-2-(4-(3-nitropyridin-2-yl)piperazin-1-yl)acetamide]",IC50,[1],4.47 ± 0.44 µM
same,melting point,,109 to 110 °C
"CC(C(=O)Nc1cccc([N+](=O)[O-])c1)N1CCN(c2ncccc2[N+](=O)[O-])CC1 (stereo not shown) [7f, N-(3-Nitrophenyl)-2-(4-(3-nitropyridin-2-yl)piperazin-1-yl)propanamide]",IC50,[1],7.66 ± 0.37 µM
same,melting point,,120 to 121 °C
"COc1ccccc1NC(=O)CN1CCN(c2ncccc2[N+](=O)[O-])CC1 [5n, N-(2-Methoxyphenyl)-2-(4-(3-nitropyridin-2-yl)piperazin-1-yl)acetamide]",IC50,[1],5.33 ± 0.44 µM
same,melting point,,120 to 121 °C
"Cc1ccc(NC(=O)C(C)N2CCN(c3ncccc3[N+](=O)[O-])CC2)cc1 (stereo not shown) [7i, N-(para-Tolyl)-2-(4-(3-nitropyridin-2-yl)piperazin-1-yl)propanamide]",IC50,[1],5.65 ± 0.4 µM
same,melting point,,88 to 89 °C
NC(=S)N/N=C/c1ccc(Cl)cn1 [Pyridine carbothioamide],IC50,"[2]; in Figure 3, ref Naseer et al.",1.07 µM
"O=C(CN1CCN(c2ncccc2[N+](=O)[O-])CC1)Nc1ccccc1[N+](=O)[O-] [5h, N-(2-Nitrophenyl)-2-(4-(3-nitropyridin-2-yl)piperazin-1-yl)acetamide]",IC50,[1],7.12 ± 0.39 µM
same,melting point,,113 to 115 °C
"COc1ccc(NC(=O)C(C)N2CCN(c3ncccc3[N+](=O)[O-])CC2)cc1 (stereo not shown) [7k, N-(4-Methoxyphenyl)-2-(4-(3-nitropyridin-2-yl)piperazin-1-yl)propanamide]",IC50,[1],5.95 ± 0.43 µM
same,melting point,,62 to 64 °C
"CC(C(=O)Nc1ccccc1Br)N1CCN(c2ncccc2[N+](=O)[O-])CC1 (stereo not shown) [7d, N-(2-Bromophenyl)-2-(4-(3-nitropyridin-2-yl)piperazin-1-yl)propanamide]",IC50,[1],6.74 ± 0.49 µM
same,melting point,,91 to 94 °C
"O=C(CN1CCN(c2ncccc2[N+](=O)[O-])CC1)Nc1cccc(Br)c1 [5f, N-(3-Bromophenyl)-2-(4-(3-nitropyridin-2-yl)piperazin-1-yl)acetamide]",IC50,[1],5.24 ± 0.45 µM
same,melting point,,101 to 102 °C
"CC(C(=O)Nc1cccc(Cl)c1)N1CCN(c2ncccc2[N+](=O)[O-])CC1 (stereo not shown) [7b, N-(3-Chlorophenyl)-2-(4-(3-nitropyridin-2-yl)piperazin-1-yl)propanamide]",IC50,[1],6.7 ± 0.37 µM
same,melting point,,107 to 109 °C
"CC(C(=O)Nc1ccc([N+](=O)[O-])cc1)N1CCN(c2ncccc2[N+](=O)[O-])CC1 (stereo not shown) [7g, N-(4-Nitrophenyl)-2-(4-(3-nitropyridin-2-yl)piperazin-1-yl)propanamide]",IC50,[1],6.13 ± 0.4 µM
same,melting point,,159 to 161 °C
"CC(C(=O)Nc1ccc(Cl)cc1)N1CCN(c2ncccc2[N+](=O)[O-])CC1 (stereo not shown) [7c, N-(4-Chlorophenyl)-2-(4-(3-nitropyridin-2-yl)piperazin-1-yl)propanamide]",IC50,[1],7.38 ± 0.37 µM
same,melting point,,57 to 59 °C
"O=C(CN1CCN(c2ncccc2[N+](=O)[O-])CC1)Nc1cccc(Cl)c1 [5c, N-(3-Chlorophenyl)-2-(4-(3-nitropyridin-2-yl)piperazin-1-yl)acetamide]",IC50,[1],2.13 ± 0.82 µM
same,melting point,,71 to 73 °C
"COc1ccccc1NC(=O)C(C)N1CCN(c2ncccc2[N+](=O)[O-])CC1 (stereo not shown) [7j, N-(2-Methoxyphenyl)-2-(4-(3-nitropyridin-2-yl)piperazin-1-yl)propanamide]",IC50,[1],5.32 ± 0.41 µM
same,melting point,,108 to 110 °C
"O=C(CN1CCN(c2ncccc2[N+](=O)[O-])CC1)Nc1ccccc1 [5a, 2-(4-(3-Nitropyridin-2-yl)piperazin-1-yl)-N-phenylacetamide]",IC50,[1],3.58 ± 0.84 µM
same,melting point,,79 to 80 °C
"O=C(CN1CCN(c2ncccc2[N+](=O)[O-])CC1)Nc1ccccc1Cl [5b, N-(2-Chlorophenyl)-2-(4-(3-nitropyridin-2-yl)piperazin-1-yl)acetamide]",IC50,[1],2 ± 0.73 µM
"Cc1ccc(NC(=O)CN2CCN(c3ncccc3[N+](=O)[O-])CC2)cc1 [5m, 2-(4-(3-Nitropyridin-2-yl)piperazin-1-yl)-N-(para-tolyl)acetamide]",IC50,[1],9.37 ± 0.4 µM
same,melting point,,112 to 113 °C
"CC(C(=O)Nc1ccccc1[N+](=O)[O-])N1CCN(c2ncccc2[N+](=O)[O-])CC1 (stereo not shown) [7e, N-(2-Nitrophenyl)-2-(4-(3-nitropyridin-2-yl)piperazin-1-yl)propanamide]",IC50,[1],2.24 ± 1.63 µM
same,biocompatibility in human blood cells (hemolysis percentage),[3],more biocompatible; also recorded: good biocompatibility
"Cc1cccc(NC(=O)CN2CCN(c3ncccc3[N+](=O)[O-])CC2)c1 [5l, 2-(4-(3-Nitropyridin-2-yl)piperazin-1-yl)-N-(meta-tolyl)acetamide]",IC50,[1],7.14 ± 0.46 µM
same,melting point,,95 to 96 °C
"CC(C(=O)Nc1ccccc1)N1CCN(c2ncccc2[N+](=O)[O-])CC1 (stereo not shown) [7a, 2-(4-(3-Nitropyridin-2-yl)piperazin-1-yl)-N-phenylpropanamide]",IC50,[1],7.41 ± 0.44 µM
same,melting point,,92 to 94 °C
